One block for each compound: values may come before it.
Key:
[1] = target: T1, Histone-lysine N-methyltransferase NSD2 (Homo sapiens, UniProt O96028); assay: Inhibition of MMSET (953 to 1240 residues) (unknown origin) by Alpha Screen assay
T1 sequence (O96028 whole entry): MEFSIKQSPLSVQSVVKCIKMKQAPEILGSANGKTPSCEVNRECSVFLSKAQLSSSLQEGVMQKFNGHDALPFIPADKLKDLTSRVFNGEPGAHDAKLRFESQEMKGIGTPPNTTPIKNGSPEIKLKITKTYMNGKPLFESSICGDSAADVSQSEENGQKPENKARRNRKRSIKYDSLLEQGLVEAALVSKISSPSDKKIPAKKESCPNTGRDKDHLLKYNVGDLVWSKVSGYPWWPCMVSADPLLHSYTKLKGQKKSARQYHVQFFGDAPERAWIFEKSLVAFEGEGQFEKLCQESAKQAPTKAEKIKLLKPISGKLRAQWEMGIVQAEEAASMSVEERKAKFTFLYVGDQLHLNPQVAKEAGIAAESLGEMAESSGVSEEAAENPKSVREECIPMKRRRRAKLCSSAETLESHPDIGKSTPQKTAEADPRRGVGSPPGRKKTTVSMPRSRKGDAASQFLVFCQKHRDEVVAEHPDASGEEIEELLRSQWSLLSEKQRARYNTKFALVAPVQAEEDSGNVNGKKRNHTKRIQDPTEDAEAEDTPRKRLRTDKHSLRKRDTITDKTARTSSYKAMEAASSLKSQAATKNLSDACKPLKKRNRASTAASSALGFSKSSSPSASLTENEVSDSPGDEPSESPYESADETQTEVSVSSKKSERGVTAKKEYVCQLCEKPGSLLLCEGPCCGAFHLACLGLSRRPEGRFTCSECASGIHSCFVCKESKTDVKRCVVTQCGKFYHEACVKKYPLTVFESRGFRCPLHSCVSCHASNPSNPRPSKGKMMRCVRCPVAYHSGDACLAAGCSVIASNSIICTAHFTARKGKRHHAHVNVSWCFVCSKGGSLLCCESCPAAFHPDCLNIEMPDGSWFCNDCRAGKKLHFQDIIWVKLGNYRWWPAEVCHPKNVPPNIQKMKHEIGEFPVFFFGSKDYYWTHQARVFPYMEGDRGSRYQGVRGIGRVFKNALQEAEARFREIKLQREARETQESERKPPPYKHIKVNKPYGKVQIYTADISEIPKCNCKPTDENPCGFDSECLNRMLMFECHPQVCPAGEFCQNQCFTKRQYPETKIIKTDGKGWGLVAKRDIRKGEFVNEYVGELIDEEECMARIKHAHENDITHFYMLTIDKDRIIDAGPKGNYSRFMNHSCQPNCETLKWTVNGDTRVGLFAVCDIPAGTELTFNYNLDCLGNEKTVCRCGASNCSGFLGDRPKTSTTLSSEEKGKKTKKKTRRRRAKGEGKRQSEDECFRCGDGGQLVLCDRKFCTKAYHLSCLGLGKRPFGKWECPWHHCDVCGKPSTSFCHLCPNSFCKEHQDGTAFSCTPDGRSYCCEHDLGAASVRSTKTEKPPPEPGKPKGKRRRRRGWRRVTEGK

MOLM-13 = assay: Growth inhibition of human MOLM-13 cells; format: functional
MV4-11 = assay: Growth inhibition of human MV4-11 cells after 7 days by WST-8 assay; format: functional; details: MV4-11, 168 h, time 7 day
KOPN-8 = assay: Growth inhibition of human KOPN-8 cells; format: functional
[2] = Oral bioavailability in Sprague-Dawley rat by LC-MS/MS analysis; format: ADME, organism-based; details: in vivo
[3] = Oral bioavailability in CD-1 mouse by LC-MS/MS analysis; format: ADME, organism-based; details: in vivo
[4] = target: Protein cereblon/Histone-lysine N-methyltransferase NSD2 (Homo sapiens, UniProt O96028+Q96SW2); assay: PROTAC activity at CRBN/NSD2 in human VCaP cells assessed as induction of NSD2 degradation at 2 uM incubated for 24 hrs by immunoblot analysis; format: cell-based
Chain of Protein cereblon/Histone-lysine N-methyltransferase NSD2 (Q96SW2 whole entry, one chain of several): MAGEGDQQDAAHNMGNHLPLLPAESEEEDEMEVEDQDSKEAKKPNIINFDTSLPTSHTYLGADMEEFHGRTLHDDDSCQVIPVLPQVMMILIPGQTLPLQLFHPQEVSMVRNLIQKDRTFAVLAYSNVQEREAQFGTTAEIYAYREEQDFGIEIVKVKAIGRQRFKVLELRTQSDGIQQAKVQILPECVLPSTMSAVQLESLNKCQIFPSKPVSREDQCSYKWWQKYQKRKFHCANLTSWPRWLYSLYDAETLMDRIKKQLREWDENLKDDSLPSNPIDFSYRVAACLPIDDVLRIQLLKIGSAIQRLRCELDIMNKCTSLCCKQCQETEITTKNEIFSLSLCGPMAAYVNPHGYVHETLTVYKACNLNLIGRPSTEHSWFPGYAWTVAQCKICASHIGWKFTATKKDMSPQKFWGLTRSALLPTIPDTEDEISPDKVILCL

[5] = Antiproliferative activity against […] assessed as reduction in cell growth incubated for 48 hrs by MTT assay; format: functional, cell-based; details: RN 22, 48 h
[6] = target: von Hippel-Lindau disease tumor suppressor/Histone-lysine N-methyltransferase NSD3 (Homo sapiens, UniProt Q9BZ95+P40337); assay: PROTAC activity at VHL/NSD3 […] domain in human MOLM-13 cells assessed as […] measured after 48 hrs by immunoblotting analysis; format: cell-based
Chain of von Hippel-Lindau disease tumor suppressor/Histone-lysine N-methyltransferase NSD3 (Q9BZ95 whole entry): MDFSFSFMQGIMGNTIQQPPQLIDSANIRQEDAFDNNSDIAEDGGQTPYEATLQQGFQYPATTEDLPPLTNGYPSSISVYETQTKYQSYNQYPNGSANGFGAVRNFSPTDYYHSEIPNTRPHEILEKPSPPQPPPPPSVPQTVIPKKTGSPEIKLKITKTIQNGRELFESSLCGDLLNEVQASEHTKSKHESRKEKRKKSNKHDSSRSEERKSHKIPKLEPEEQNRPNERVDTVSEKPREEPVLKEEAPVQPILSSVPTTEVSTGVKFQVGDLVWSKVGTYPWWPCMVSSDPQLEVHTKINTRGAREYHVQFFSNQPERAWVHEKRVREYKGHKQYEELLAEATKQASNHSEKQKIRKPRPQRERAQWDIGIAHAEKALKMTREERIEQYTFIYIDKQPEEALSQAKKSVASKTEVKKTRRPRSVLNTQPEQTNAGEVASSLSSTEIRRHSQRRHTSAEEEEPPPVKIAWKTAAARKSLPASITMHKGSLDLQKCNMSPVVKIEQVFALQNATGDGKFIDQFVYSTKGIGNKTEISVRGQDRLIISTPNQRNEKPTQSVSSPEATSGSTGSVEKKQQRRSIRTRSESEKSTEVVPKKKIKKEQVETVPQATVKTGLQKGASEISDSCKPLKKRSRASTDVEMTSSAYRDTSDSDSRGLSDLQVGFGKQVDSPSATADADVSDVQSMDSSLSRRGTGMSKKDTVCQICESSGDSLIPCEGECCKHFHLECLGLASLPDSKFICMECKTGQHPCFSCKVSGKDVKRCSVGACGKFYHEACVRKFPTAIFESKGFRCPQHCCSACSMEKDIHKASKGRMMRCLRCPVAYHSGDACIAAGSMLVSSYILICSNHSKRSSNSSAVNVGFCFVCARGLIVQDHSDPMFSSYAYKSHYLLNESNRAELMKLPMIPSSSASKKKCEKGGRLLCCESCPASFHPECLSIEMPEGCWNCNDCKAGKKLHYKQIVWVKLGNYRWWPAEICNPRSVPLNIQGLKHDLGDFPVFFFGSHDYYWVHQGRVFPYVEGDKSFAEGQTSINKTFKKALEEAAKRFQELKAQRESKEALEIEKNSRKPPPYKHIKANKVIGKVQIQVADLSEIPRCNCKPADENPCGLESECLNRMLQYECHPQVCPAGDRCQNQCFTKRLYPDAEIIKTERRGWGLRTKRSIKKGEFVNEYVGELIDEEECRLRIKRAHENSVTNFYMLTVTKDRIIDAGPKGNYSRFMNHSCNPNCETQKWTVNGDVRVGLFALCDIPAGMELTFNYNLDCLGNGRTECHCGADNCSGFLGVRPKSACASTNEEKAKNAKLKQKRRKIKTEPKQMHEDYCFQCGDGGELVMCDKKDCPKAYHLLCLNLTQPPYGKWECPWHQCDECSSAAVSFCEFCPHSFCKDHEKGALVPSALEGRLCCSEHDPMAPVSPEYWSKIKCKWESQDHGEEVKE
Chain of von Hippel-Lindau disease tumor suppressor/Histone-lysine N-methyltransferase NSD3 (P40337 whole entry): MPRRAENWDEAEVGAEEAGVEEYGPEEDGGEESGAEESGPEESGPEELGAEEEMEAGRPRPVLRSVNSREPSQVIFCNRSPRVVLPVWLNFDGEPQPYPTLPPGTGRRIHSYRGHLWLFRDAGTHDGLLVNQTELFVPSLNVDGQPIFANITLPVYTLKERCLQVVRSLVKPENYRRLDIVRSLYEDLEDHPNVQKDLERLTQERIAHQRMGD

EOL1 = assay: Antiproliferative activity against human EOL1 cells assessed as cell growth inhibition; format: functional, cell-based
[7] = target: T1, Histone-lysine N-methyltransferase NSD2; assay: Inhibition of NSD2 SET domain (unknown origin) extracted from Escherichia coli BL21
[8] = target: T1, Histone-lysine N-methyltransferase NSD2; assay: Binding affinity to NSD2 (unknown origin) assessed as dissociation constant by SPR analysis

Compound: CN1CC(C(=O)NCc2ccc3c(-c4cccc(C(N)=S)c4)cn(C4CCN(S(=O)(=O)C(F)(F)F)CC4)c3c2)C1
GI50 (MOLM-13): 1800 nM
GI50 (MV4-11): 1800 nM
GI50 (KOPN-8): 1800 nM

Compound: O=C(CNc1cccc2c1C(=O)N(C1CCC(=O)NC1=O)C2=O)NCCCOc1ccc(NC(=O)c2ccc(CN(C(=O)c3ccc4c(c3)OCC(=O)N4)C3CC3)cc2)nc1 (centres undefined)
DC50 [4]: 5200 nM

Compound: CCC(C)N[C@@H](CC[C@H](N)C(=O)O)C[C@H]1O[C@@H](n2cnc3c(N)ncnc32)[C@H](O)[C@@H]1O (some centres undefined)
IC50 [1]: 1800 nM

Compound: CC(=O)N(C)C1CCN(c2cc(F)cc(NC(=O)c3cc4c(F)ccc(C)c4[nH]3)c2)C1 (centres undefined)
IC50 [1]: 7 nM

Compound: Cc1cc(CN)cc(C)c1-c1ncn(C)c1-c1ccnc2cc(F)ccc12
IC50 [5]: 13000 nM

Compound: Cc1cc(CNCCCC(=O)NCCCCCCCCC(=O)N[C@H](C(=O)N2C[C@H](O)C[C@H]2C(=O)N[C@@H](C)c2ccc(-c3scnc3C)cc2)C(C)(C)C)cc(C)c1-c1ncn(C)c1-c1ccnc2cc(F)ccc12
DC50 [6]: 4900 nM
IC50 (EOL1): 2300 nM

Compound: O=C1O[C@@H](C(=O)N2CCN(Cc3nc4sc5c(c4c(=O)[nH]3)CCCC5)CC2)Cc2ccccc21
IC50 [7]: 132 nM

Compound: NCCCCCCNC(=O)c1ccc(NC(=O)c2ccc(CN(C(=O)c3ccc4c(c3)OCC(=O)N4)C3CC3)cc2)cc1
DC50 [4]: 350 nM
Kd [8]: 24 nM

Compound: NC(=S)c1cccc(-c2cn(C3CCN(S(=O)(=O)C(F)(F)F)CC3)c3cc(CNC(=O)C4CNC4)ccc23)c1
GI50 (MOLM-13): 5000 nM
GI50 (MV4-11): 5000 nM
GI50 (KOPN-8): 5000 nM

More lines, now with the values ahead:

IC50 [1]: 166000 nM
Compound: Cc1cccc2cc(C(=O)NC3CCC(N)CC3)[nH]c12 (centres undefined)

IC50 [1]: 4240 nM
Compound: Cc1cccc2cc(C(=O)Nc3ccccc3)[nH]c12

IC50 [1]: 18 nM
bioavailability [2]: 97%
bioavailability [3]: > 100%
Compound: CC(=O)N1CCN([C@H]2CCC[C@@H](NC(=O)c3cc4c(F)ccc(C)c4[nH]3)C2)CC1 [EZM-0414]

IC50 [1]: 3080 nM
Compound: Cc1cccnc1C(NC(=O)c1cc2cccc(C)c2[nH]1)C1CC1 (centres undefined)

IC50 [1]: 600 nM
Compound: Cc1cccnc1C(NC(=O)c1cc2c(F)ccc(C)c2[nH]1)C1CC1 (centres undefined)

IC50 [1]: 10 nM
Compound: Cc1ccc(F)c2cc(C(=O)Nc3cccc(N4CCC(N(C)C)CC4)c3)[nH]c12

Reference: ChEMBL document CHEMBL5579817, “Recent advances in targeting histone H3 lysine 36 methyltransferases for cancer therapy” (Eur J Med Chem, 2024)
